Test results published in PMC10991380, “Cloning, functional expression, and pharmacological characterization of inwardly rectifying potassium channels (Kir) from Apis mellifera” (Scientific Reports, 2024).

Experiments:
Experiment in all cases: two-electrode voltage clamp, Xenopus oocytes
Type in all cases: cell-based, Apis mellifera
Conditions in all cases: 96 mM KCl Ringer, pH 7.6; holding potential -80 mV; VU041 in DMSO
[1] = test system: T1, AmKir2.2
T1 construct: homotetramer; N-terminal tail 31 residues longer than AmKir2.3

[2] = test system: T2, AmKir1.1
T2 construct: homotetramer; longer N-terminal and shorter C-terminal tail than AmKir2

[3] = test system: T3, AmKir2.3
T3 construct: homotetramer; N-terminal tail 31 residues shorter than AmKir2.2

Structure (SMILES): O=C(Cn1nc(C(F)(F)F)c2c1CCCC2)N1CCCc2ccccc21 [VU041]
- % inhibition at 10^-4 M [1]: 45.65 ± 5.01%
- % inhibition at 10^-4 M [2]: 48.94 ± 3.79%
- % inhibition at 10^-5 M [3]: 24.04 ± 1.92%
